Reference: PubChem BioAssay (NCI)
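Compound exposure: 48 hours, 5 concentrations, 96-well plates. GI50 = concentration required for 50% inhibition of growth. TGI: total growth inhibition.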

Legend:
Assay in all cases: inhibition of tumour cell growth, NCI panel, 48 h
HOP-62 NSCLC = system: HOP-62 NSCLC
MDA-MB-435 = system: MDA-MB-435
DU-145 prostate = system: DU-145 prostate
HCC-2998 colon = system: HCC-2998 colon
NCI-H522 lung = system: NCI-H522 lung
SW-620 colon = system: SW-620 colon
UACC-62 melanoma = system: UACC-62 melanoma
SK-MEL-2 melanoma = system: SK-MEL-2 melanoma
NCI-H226 lung = system: NCI-H226 lung
TK-10 renal = system: TK-10 renal
M14 melanoma = system: M14 melanoma
RXF 393 renal = system: RXF 393 renal
NCI-H460 lung = system: NCI-H460 lung
SF-295 CNS = system: SF-295 CNS
PC-3 prostate = system: PC-3 prostate
BT-549 breast = system: BT-549 breast
SF-539 CNS = system: SF-539 CNS
EKVX NSCLC = system: EKVX NSCLC
T-47D breast = system: T-47D breast
HT29 colon = system: HT29 colon
UACC-257 melanoma = system: UACC-257 melanoma
LOX IMVI melanoma = system: LOX IMVI melanoma
OVCAR-4 ovarian = system: OVCAR-4 ovarian
SNB-19 CNS = system: SNB-19 CNS
MCF7 breast = system: MCF7 breast
K-562 leukemia = system: K-562 leukemia
U251 CNS = system: U251 CNS
SF-268 CNS = system: SF-268 CNS
ACHN renal = system: ACHN renal
SK-MEL-5 melanoma = system: SK-MEL-5 melanoma
CAKI-1 renal = system: CAKI-1 renal
A549 NSCLC = system: A549 NSCLC
MDA-MB-231 breast = system: MDA-MB-231 breast
NCI/ADR-RES ovarian = system: NCI/ADR-RES ovarian
SK-OV-3 ovarian = system: SK-OV-3 ovarian
HCT-15 colon = system: HCT-15 colon
SN12C renal = system: SN12C renal
SK-MEL-28 melanoma = system: SK-MEL-28 melanoma
HCT-116 colon = system: HCT-116 colon
OVCAR-3 ovarian = system: OVCAR-3 ovarian
UO-31 renal = system: UO-31 renal
IGROV1 ovarian = system: IGROV1 ovarian
HS 578T breast = system: HS 578T breast
SNB-75 CNS = system: SNB-75 CNS
RPMI-8226 leukemia = system: RPMI-8226 leukemia
OVCAR-8 ovarian = system: OVCAR-8 ovarian
MOLT-4 leukemia = system: MOLT-4 leukemia
NCI-H23 lung = system: NCI-H23 lung
HOP-92 NSCLC = system: HOP-92 NSCLC
786-0 renal = system: 786-0 renal
COLO 205 colon = system: COLO 205 colon
OVCAR-5 ovarian = system: OVCAR-5 ovarian
CCRF-CEM leukemia = system: CCRF-CEM leukemia
SR leukemia = system: SR leukemia
KM12 colon = system: KM12 colon

## O=C(Nc1cc(Cl)cc(Cl)c1)c1ccc(NC2=C(Cl)C(=O)N(Cc3ccc(Cl)cc3Cl)C2=O)cc1
HOP-62 NSCLC
  GI50: 34.1 µM
  TGI: > 100 µM
MDA-MB-435
  GI50: 25 µM
  TGI: 57.9 µM
DU-145 prostate
  GI50: 20.1 µM
  TGI: 50.7 µM
HCC-2998 colon
  GI50: 15 µM
  TGI: 36.9 µM
NCI-H522 lung
  GI50: 15.7 µM
  TGI: 34.3 µM
SW-620 colon
  GI50: 1.38 µM
  TGI: 13.1 µM
UACC-62 melanoma
  GI50: 18.3 µM
  TGI: 38.2 µM
SK-MEL-2 melanoma
  GI50: 23.5 µM
  TGI: 43.9 µM
NCI-H226 lung
  GI50: 14.4 µM
  TGI: 35 µM
TK-10 renal
  GI50: 0.768 µM
  TGI: 26 µM
M14 melanoma
  GI50: 10.1 µM
  TGI: 61.7 µM
RXF 393 renal
  GI50: 29.6 µM
  TGI: > 100 µM
NCI-H460 lung
  GI50: 16.6 µM
  TGI: > 100 µM
SF-295 CNS
  GI50: 43.2 µM
  TGI: > 100 µM
PC-3 prostate
  GI50: 13.1 µM
  TGI: 25.8 µM
BT-549 breast
  GI50: 1.57 µM
  TGI: 7.22 µM
SF-539 CNS
  GI50: 6.94 µM
  TGI: 25.3 µM
EKVX NSCLC
  GI50: 21.2 µM
  TGI: 71.4 µM
T-47D breast
  GI50: 3.12 µM
  TGI: 73.9 µM
HT29 colon
  GI50: 49.3 µM
  TGI: > 100 µM
UACC-257 melanoma
  GI50: 24.8 µM
  TGI: 53.1 µM
LOX IMVI melanoma
  GI50: 1.5 µM
  TGI: 4.19 µM
OVCAR-4 ovarian
  GI50: 21.8 µM
  TGI: > 100 µM
SNB-19 CNS
  GI50: 21.4 µM
  TGI: 83.4 µM
MCF7 breast
  GI50: 3.18 µM
  TGI: 12.9 µM
K-562 leukemia
  GI50: 1.33 µM
  TGI: 10.7 µM
U251 CNS
  GI50: 16.8 µM
  TGI: 51.6 µM
SF-268 CNS
  GI50: 8.87 µM
  TGI: 39.4 µM
ACHN renal
  GI50: 19 µM
  TGI: 48.9 µM
SK-MEL-5 melanoma
  GI50: 1.16 µM
  TGI: 2.65 µM
CAKI-1 renal
  GI50: 36.8 µM
  TGI: > 100 µM
A549 NSCLC
  GI50: > 100 µM
  TGI: > 100 µM
MDA-MB-231 breast
  GI50: 19.6 µM
  TGI: 41.8 µM
NCI/ADR-RES ovarian
  GI50: 29.7 µM
  TGI: > 100 µM
SK-OV-3 ovarian
  GI50: 55.3 µM
  TGI: > 100 µM
HCT-15 colon
  GI50: 7.06 µM
  TGI: 95.3 µM
SN12C renal
  GI50: 24.9 µM
  TGI: 60.6 µM
SK-MEL-28 melanoma
  GI50: 21.4 µM
  TGI: 75.8 µM
HCT-116 colon
  GI50: 4.06 µM
  TGI: 16.9 µM
OVCAR-3 ovarian
  GI50: 26.8 µM
  TGI: 70.2 µM
UO-31 renal
  GI50: 1.7 µM
  TGI: 3.25 µM
IGROV1 ovarian
  GI50: 2.15 µM
  TGI: 7.17 µM
HS 578T breast
  GI50: 8.12 µM
  TGI: 54.7 µM
SNB-75 CNS
  GI50: 68 µM
  TGI: > 100 µM
RPMI-8226 leukemia
  GI50: 2.53 µM
  TGI: 10.9 µM
OVCAR-8 ovarian
  GI50: 21.6 µM
  TGI: 87.2 µM
MOLT-4 leukemia
  GI50: 0.249 µM
  TGI: 1.53 µM
NCI-H23 lung
  GI50: 3.71 µM
  TGI: 19.2 µM
HOP-92 NSCLC
  GI50: 9.32 µM
  TGI: 27.5 µM
786-0 renal
  GI50: 3.41 µM
  TGI: 35.1 µM
COLO 205 colon
  GI50: 12.1 µM
  TGI: 35.4 µM
OVCAR-5 ovarian
  GI50: > 100 µM
  TGI: > 100 µM
CCRF-CEM leukemia
  GI50: 0.22 µM
  TGI: 0.819 µM
SR leukemia
  GI50: 0.0622 µM
  TGI: 0.238 µM
KM12 colon
  GI50: 13.6 µM
  TGI: 47.7 µM
